Experimental data published in ChEMBL document CHEMBL1201862, “PubChem BioAssay data set” (2004).
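Cells were grown in 96-well plates and exposed to each compound for 48 hours at five concentrations; endpoints were interpolated linearly between bracketing concentrations, or set to the highest concentration if not reached. At the GI50, growth is halved.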 Calls of active or inactive are those of the source. No stated cut-off is given here; in the data, active = GI50 up to about 1.1 µM and inactive = higher.

Key:
Assay in all cases: inhibition of tumour cell growth, NCI panel, 48 h
[1] = system: 786-0
[2] = system: A498
[3] = system: A549
[4] = system: ACHN
[5] = system: CAKI-1
[6] = system: CCRF-CEM
[7] = system: COLO 205
[8] = system: DLD-1
[9] = system: DMS-114
[10] = system: DMS-273
[11] = system: EKVX
[12] = system: HCC 2998
[13] = system: HCT-116
[14] = system: HCT-15
[15] = system: HL-60
[16] = system: HOP-18
[17] = system: HOP-62
[18] = system: HOP-92
[19] = system: HT-29
[20] = system: IGROV-1
[21] = system: K562
[22] = system: KM-20L2
[23] = system: KM12
[24] = system: LOX IMVI
[25] = system: LXFL 529
[26] = system: M14
[27] = system: MOLT-4
[28] = system: Malme-3M
[29] = system: NCI-H226
[30] = system: NCI-H23
[31] = system: NCI-H460
[32] = system: NCI-H522
[33] = system: OVCAR-3
[34] = system: OVCAR-4
[35] = system: OVCAR-5
[36] = system: OVCAR-8
[37] = system: RPMI-8226
[38] = system: RXF 631
[39] = system: SF-268
[40] = system: SF-295
[41] = system: SF-539
[42] = system: SK-MEL-28
[43] = system: SK-MEL-2
[44] = system: SK-OV-3
[45] = system: SN12C
[46] = system: SNB-19
[47] = system: SNB-78
[48] = system: SW-620
[49] = system: TK-10
[50] = system: U-251
[51] = system: UACC-257
[52] = system: UACC-62
[53] = system: UO-31
[54] = system: XF498
[55] = system: M19-MEL
[56] = system: RXF 393
[57] = system: SK-MEL-5
[58] = system: SNB-75

`COC(=O)NN1C(C)=C(C(=O)OC)C2(CCOC2=O)C1(C)O` (stereo not given) was tested, and the GI50 [1] was > 100 µM (inactive), the GI50 [2] was > 100 µM (inactive) and the GI50 [3] was > 100 µM (inactive). For the same compound, the GI50 [4] was > 100 µM (inactive), the GI50 [5] was > 100 µM (inactive) and the GI50 [6] was > 100 µM (inactive). For the same compound, the GI50 [7] was > 100 µM (inactive), the GI50 [8] was > 100 µM (inactive) and the GI50 [9] was > 100 µM (inactive). The GI50 [10] was > 100 µM (inactive), the GI50 [11] was > 100 µM (inactive) and the GI50 [12] was > 100 µM (inactive). For the same compound, the GI50 [13] was > 100 µM (inactive), the GI50 [14] was greater than 100 µM and the GI50 [15] was > 100 µM (inactive). For the same compound, the GI50 [16] was > 100 µM (inactive), the GI50 [17] was > 100 µM (inactive) and the GI50 [18] was > 100 µM (inactive). For the same compound, the GI50 [19] was > 100 µM (inactive), the GI50 [20] was > 100 µM (inactive) and the GI50 [21] was > 100 µM (inactive). For the same compound, the GI50 [22] was > 100 µM (inactive), the GI50 [23] was > 100 µM (inactive) and the GI50 [24] was > 100 µM (inactive). The GI50 [25] was > 100 µM (inactive), the GI50 [26] was > 100 µM (inactive) and the GI50 [27] was > 100 µM (inactive). For the same compound, the GI50 [28] was > 100 µM (inactive), the GI50 [29] was > 100 µM (inactive) and the GI50 [30] was > 100 µM (inactive). For the same compound, the GI50 [31] was > 100 µM (inactive), the GI50 [32] was > 100 µM (inactive) and the GI50 [33] was > 100 µM (inactive). The GI50 [34] was > 100 µM (inactive), the GI50 [35] was > 100 µM (inactive) and the GI50 [36] was > 100 µM (inactive). The GI50 [37] was > 100 µM (inactive), the GI50 [38] was > 100 µM (inactive) and the GI50 [39] was > 100 µM (inactive). The GI50 [40] was > 100 µM (inactive), the GI50 [41] was > 100 µM (inactive) and the GI50 [42] was > 100 µM (inactive). The GI50 [43] was > 100 µM (inactive), the GI50 [44] was > 100 µM (inactive) and the GI50 [45] was > 100 µM (inactive). The GI50 [46] was > 100 µM (inactive), the GI50 [47] was > 100 µM (inactive) and the GI50 [48] was > 100 µM (inactive). For the same compound, the GI50 [49] was > 100 µM (inactive), the GI50 [50] was > 100 µM (inactive) and the GI50 [51] was > 100 µM (inactive). The GI50 [52] was > 100 µM (inactive), the GI50 [53] was > 100 µM (inactive) and the GI50 [54] was > 100 µM (inactive).
In the case of `COc1cc2c(cc1OC)/C(=C\c1ccccc1N)C(=O)OC2`, the GI50 [1] is reported as 3.07 µM (inactive), the GI50 [3] is reported as 32.1 µM (inactive) and the GI50 [4] is reported as 18.3 µM (inactive). The GI50 [5] was 12 µM (inactive), the GI50 [6] was 2.05 µM (inactive) and the GI50 [7] was 12 µM (inactive). For the same compound, the GI50 [8] was 15 µM (inactive), the GI50 [9] was 16.3 µM (inactive) and the GI50 [10] was 10.7 µM (inactive). For the same compound, the GI50 [11] was 25 µM (inactive), the GI50 [12] was 23.3 µM (inactive) and the GI50 [14] was 7.19 µM. For the same compound, the GI50 [15] was 3.3 µM (inactive), the GI50 [16] was 13.8 µM (inactive) and the GI50 [17] was 23.3 µM (inactive). For the same compound, the GI50 [18] was 12.4 µM (inactive), the GI50 [19] was 11.8 µM (inactive) and the GI50 [20] was 18.6 µM (inactive). For the same compound, the GI50 [21] was 3.02 µM (inactive), the GI50 [22] was 19.1 µM (inactive) and the GI50 [23] was 13.9 µM (inactive). For the same compound, the GI50 [24] was 2.11 µM (inactive), the GI50 [25] was 4.65 µM (inactive) and the GI50 [26] was 19.3 µM (inactive). The GI50 [55] was 15.2 µM (inactive), the GI50 [27] was 2.31 µM (inactive) and the GI50 [28] was 13.9 µM (inactive). For the same compound, the GI50 [30] was 16.1 µM (inactive), the GI50 [31] was 14.7 µM (inactive) and the GI50 [32] was 1.56 µM (inactive). The GI50 [33] was 18.7 µM (inactive), the GI50 [34] was 14.9 µM (inactive) and the GI50 [35] was 20 µM (inactive). For the same compound, the GI50 [36] was > 10 µM (inactive), the GI50 [37] was 1.84 µM (inactive) and the GI50 [56] was 3.79 µM (inactive). For the same compound, the GI50 [38] was 9.75 µM (inactive), the GI50 [39] was 20.9 µM (inactive) and the GI50 [40] was 15.1 µM (inactive). For the same compound, the GI50 [41] was 15.7 µM (inactive), the GI50 [42] was 17 µM (inactive) and the GI50 [43] was 12.1 µM (inactive). For the same compound, the GI50 [57] was 17.8 µM (inactive), the GI50 [44] was 27.7 µM (inactive) and the GI50 [45] was 13.2 µM (inactive). For the same compound, the GI50 [46] was 16.7 µM (inactive), the GI50 [58] was 10.3 µM (inactive) and the GI50 [48] was 4 µM (inactive). The GI50 [49] was 20.6 µM (inactive), the GI50 [50] was 18.5 µM (inactive) and the GI50 [51] was 15.1 µM (inactive). The GI50 [52] was 16.3 µM (inactive) and the GI50 [53] was 15.5 µM (inactive).
For `C=C1c2c(cc3c(c2O)c(=O)c2ccccc2n3C)OC1(C)C`, the GI50 [2] was 30.9 µM (inactive), the GI50 [4] was 46.9 µM (inactive) and the GI50 [5] was > 100 µM (inactive). The GI50 [6] was > 100 µM (inactive), the GI50 [7] was > 100 µM (inactive) and the GI50 [8] was > 100 µM (inactive). For the same compound, the GI50 [9] was 99.8 µM (inactive), the GI50 [10] was > 100 µM (inactive) and the GI50 [11] was > 100 µM (inactive). For the same compound, the GI50 [14] was greater than 100 µM, the GI50 [15] was > 100 µM (inactive) and the GI50 [16] was 9.79 µM (inactive). For the same compound, the GI50 [18] was 15 µM (inactive), the GI50 [19] was 37.7 µM (inactive) and the GI50 [20] was 32.7 µM (inactive). The GI50 [21] was > 10 µM (inactive), the GI50 [22] was 8.71 µM (inactive) and the GI50 [24] was > 100 µM (inactive). For the same compound, the GI50 [25] was > 100 µM (inactive), the GI50 [26] was > 100 µM (inactive) and the GI50 [55] was > 100 µM (inactive). For the same compound, the GI50 [27] was > 100 µM (inactive), the GI50 [28] was > 100 µM (inactive) and the GI50 [29] was 79.4 µM (inactive). For the same compound, the GI50 [30] was 7.89 µM (inactive), the GI50 [31] was 59 µM (inactive) and the GI50 [32] was 2.95 µM (inactive). For the same compound, the GI50 [33] was > 100 µM (inactive), the GI50 [36] was 52.6 µM (inactive) and the GI50 [37] was > 100 µM (inactive). For the same compound, the GI50 [38] was > 100 µM (inactive), the GI50 [39] was 31.6 µM (inactive) and the GI50 [40] was 22.5 µM (inactive). The GI50 [41] was 35.2 µM (inactive), the GI50 [42] was > 100 µM (inactive) and the GI50 [43] was 40.3 µM (inactive). For the same compound, the GI50 [57] was > 100 µM (inactive), the GI50 [44] was 20 µM (inactive) and the GI50 [45] was > 100 µM (inactive). For the same compound, the GI50 [46] was 34.4 µM (inactive), the GI50 [58] was 16.9 µM (inactive) and the GI50 [47] was 37.2 µM (inactive). The GI50 [48] was > 100 µM (inactive), the GI50 [49] was 77.6 µM (inactive) and the GI50 [50] was 50.1 µM (inactive). The GI50 [52] was > 100 µM (inactive), the GI50 [53] was > 100 µM (inactive) and the GI50 [54] was 28.6 µM (inactive).
